Experimental data from article PMC4317013 (The Journal of Biological Chemistry, 2014).

Columns and labels:
[1] = test system: urokinase; experiment: 30 nM urokinase; conditions: 37 °C, up to 120 min
[2] = test system: enteropeptidase; experiment: 30 nM enteropeptidase; conditions: 37 °C, up to 120 min
[3] = media from untreated U937 cells (RMPI 1640 medium); conditions: 37 °C, up to 4 h
[4] = test system: testisin; experiment: 30 nM testisin in testisin buffer (50 mM Tris, 150 mM NaCl, 10 mM CaCl2, pH 7.5); conditions: 37 °C, up to 120 min
[5] = test system: Jurkat T cells; experiment: Internalization of FITC-labeled peptides by Jurkat T cells, FACS; conditions: 5 μM, 1 h, 37 °C, full medium with 10% FBS, washed, fixed with 4% paraformaldehyde, FACSCalibur, compared with untreated cells, Fig. 5A
Method: For the internalization experiment, cells were seeded at 1 × 10^6 cells/ml with 8 ml of full medium into 75-cm^2 flasks and treated with respective 200 nM proteins for 2 h or 5 μM peptides for 1 h.
Human A+-helix peptide ([…]; corresponding to the cleaved N-terminal peptide of hPCI), mouse A+-helix peptide ([…]; corresponding to the cleaved N-terminal peptide of mPCI), and TAT peptide ([…]) ([42]) were synthesized and labeled with FITC (GenScript, Piscataway, NJ). […] Fluorescence-activated cell sorting (FACS) analysis was performed with a FACSCalibur flow cytometer (BD Biosciences). Further data analysis was done with Flowing Software ([43]). For confocal microscopy, the fixed cells were suspended with Vectashield mounting medium containing […] DAPI (Vector Laboratories, Burlingame, CA) and transferred onto slides. Confocal images were taken by a Zeiss LSM-510 Meta confocal microscope system (Zeiss, Jena, Germany). Zeiss LSM Image Browser software was applied for further analysis of images.

Substance | not cleaved [1] | not cleaved [2] | not cleaved [3] | cleaved bond [4] | cellular fluorescence signal (FACS) [5]
RRHSHSKKKKAKESSVGAVGPPSSKDFA... | still recognized by anti-penta-His IgG after 2-h incubation | still recognized by anti-penta-His IgG after 2-h incubation | did not affect the molecular weight of mPCI upon incubation for 1 and 4 h | Ala18-Val19 | –
Fluorescein Isothiocyanate [free FITC] | – | – | – | – | small shift
